Values of other authors as cited in patent US20060217788A1, “Method of using laser induced injury to activate topical prodrugs” (priority 2004, published 2006).
Where no end group is shown, it is not given here. The star is where a group is joined. Palmitoyl = CCCCCCCCCCCCCCCC(=O)*

Experiments:
[1] = tested on: MMP-1, -2, -3, -7, -9 and -13
[2] = tested on: fibroblast cultures; conditions: in vitro
[3] = tested on: wrinkle improvement and photo-aging scores; conditions: 3 ppm, clinical studies

## PLGLAARK [fairly broad spectrum peptide substrate cleavable by MMPs]
[1]
  cleavage by MMPs: cleavable

## KTTKS [pentapeptide, subfragment of the carboxyl-terminal propeptide of type I collagen]
[2]
  production of matrix components including collagen I, III and fibronectin: increased production

## N-Palmitoyl-Lys-Thr-Thr-Lys-Ser (Palmitoyl-KTTKS) [Pal-KTTKS, pentapeptide conjugated to a 16-carbon fatty acid moiety, from Sederma]
[3]
  irritation or changes in barrier function: without significant irritation or changes in barrier function
  wrinkle improvement and reduction of photo-aging scores: comparable to retinoids
